Data published in PMC4354951 (European journal of medicinal chemistry, 2008).
“Also recorded” adds a separate entry of the source.

How the values were obtained:
[1] = Chemical hydrolysis under gastric juice-like conditions; format: physicochemical
P2Y2R = conditions: cited from earlier work
[2] = pKa and degree of ionization of phosphate/phosphonate; format: physicochemical; conditions: physiological conditions, pH 7.4
[3] = Stability in human blood serum, Method B
P2Y1R = conditions: cited from earlier work
human NPP1 = target: T1, human NPP1 (Homo sapiens, UniProt P22413); experiment: Hydrolysis by NPP1; format: biochemical
T1 sequence (P22413 1-925): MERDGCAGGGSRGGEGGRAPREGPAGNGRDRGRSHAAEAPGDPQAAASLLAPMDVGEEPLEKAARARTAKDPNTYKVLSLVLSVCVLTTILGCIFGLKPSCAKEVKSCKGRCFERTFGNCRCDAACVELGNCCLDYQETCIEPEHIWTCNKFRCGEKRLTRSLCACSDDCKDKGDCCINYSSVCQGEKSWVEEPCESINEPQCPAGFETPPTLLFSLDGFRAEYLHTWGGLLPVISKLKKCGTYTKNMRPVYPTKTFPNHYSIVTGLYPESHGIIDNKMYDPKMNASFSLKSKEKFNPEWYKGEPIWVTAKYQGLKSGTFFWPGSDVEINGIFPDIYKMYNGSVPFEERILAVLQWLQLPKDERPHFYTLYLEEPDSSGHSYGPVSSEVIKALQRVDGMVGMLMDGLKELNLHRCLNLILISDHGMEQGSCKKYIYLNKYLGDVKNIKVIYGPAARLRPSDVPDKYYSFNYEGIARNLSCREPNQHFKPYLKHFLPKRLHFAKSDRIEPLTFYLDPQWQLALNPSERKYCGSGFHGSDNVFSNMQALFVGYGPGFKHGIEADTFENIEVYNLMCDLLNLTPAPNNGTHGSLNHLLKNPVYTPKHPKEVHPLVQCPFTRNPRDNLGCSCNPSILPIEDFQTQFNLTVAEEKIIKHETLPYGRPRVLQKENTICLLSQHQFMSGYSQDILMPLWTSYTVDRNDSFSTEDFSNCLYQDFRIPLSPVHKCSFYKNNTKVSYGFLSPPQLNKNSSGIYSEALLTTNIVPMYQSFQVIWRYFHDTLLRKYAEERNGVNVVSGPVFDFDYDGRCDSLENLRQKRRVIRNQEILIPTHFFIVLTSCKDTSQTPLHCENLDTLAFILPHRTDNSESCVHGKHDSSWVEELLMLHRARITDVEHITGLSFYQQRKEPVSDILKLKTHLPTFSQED

human NPP3 = target: T2, human NPP3 (Homo sapiens, UniProt O14638); experiment: Hydrolysis by NPP3; format: biochemical
T2 sequence (O14638 1-875): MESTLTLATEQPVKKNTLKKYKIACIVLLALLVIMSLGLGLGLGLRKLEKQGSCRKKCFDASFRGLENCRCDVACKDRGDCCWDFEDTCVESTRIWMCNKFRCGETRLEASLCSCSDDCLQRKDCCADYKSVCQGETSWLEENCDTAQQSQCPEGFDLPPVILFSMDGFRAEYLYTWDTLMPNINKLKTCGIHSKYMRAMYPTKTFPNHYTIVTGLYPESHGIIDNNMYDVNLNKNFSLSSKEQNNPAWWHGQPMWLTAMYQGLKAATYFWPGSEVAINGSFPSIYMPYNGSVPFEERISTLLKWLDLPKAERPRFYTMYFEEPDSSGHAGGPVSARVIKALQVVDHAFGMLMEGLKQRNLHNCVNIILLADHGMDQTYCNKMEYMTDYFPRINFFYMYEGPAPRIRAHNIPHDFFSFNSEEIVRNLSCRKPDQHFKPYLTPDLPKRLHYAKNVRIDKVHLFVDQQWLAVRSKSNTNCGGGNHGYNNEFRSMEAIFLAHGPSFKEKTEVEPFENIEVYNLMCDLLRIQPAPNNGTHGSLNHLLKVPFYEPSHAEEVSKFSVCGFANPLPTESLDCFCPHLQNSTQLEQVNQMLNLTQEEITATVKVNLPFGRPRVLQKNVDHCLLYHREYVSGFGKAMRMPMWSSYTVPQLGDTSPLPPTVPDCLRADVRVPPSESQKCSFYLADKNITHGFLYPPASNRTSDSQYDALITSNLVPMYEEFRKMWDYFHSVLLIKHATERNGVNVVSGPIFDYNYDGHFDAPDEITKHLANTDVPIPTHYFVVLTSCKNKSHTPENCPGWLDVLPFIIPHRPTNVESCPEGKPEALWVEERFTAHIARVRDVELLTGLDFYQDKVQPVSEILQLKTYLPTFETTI

human NTPDase3 = target: T3, human NTPDase3 (Homo sapiens, UniProt O75355); experiment: Hydrolysis by NTPDase3; format: biochemical
T3 sequence (O75355 1-529): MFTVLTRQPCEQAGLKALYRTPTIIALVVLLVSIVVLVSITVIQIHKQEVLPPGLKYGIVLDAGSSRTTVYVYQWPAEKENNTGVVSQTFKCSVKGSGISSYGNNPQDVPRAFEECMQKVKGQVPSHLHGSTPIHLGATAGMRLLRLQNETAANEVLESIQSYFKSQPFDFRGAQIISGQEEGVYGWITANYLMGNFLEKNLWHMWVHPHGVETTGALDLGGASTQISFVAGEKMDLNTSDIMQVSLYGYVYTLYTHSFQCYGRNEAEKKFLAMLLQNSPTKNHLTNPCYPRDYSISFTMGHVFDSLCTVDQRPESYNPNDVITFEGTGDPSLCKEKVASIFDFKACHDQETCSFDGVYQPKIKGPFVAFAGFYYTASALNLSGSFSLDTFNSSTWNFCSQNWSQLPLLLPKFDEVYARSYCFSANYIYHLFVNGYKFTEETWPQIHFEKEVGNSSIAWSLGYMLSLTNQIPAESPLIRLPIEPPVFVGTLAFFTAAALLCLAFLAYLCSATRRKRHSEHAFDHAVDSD

human NTPDase8 = target: T4, human NTPDase8 (Homo sapiens, UniProt Q5MY95); experiment: Hydrolysis by NTPDase8; format: biochemical
T4 sequence (Q5MY95 1-495): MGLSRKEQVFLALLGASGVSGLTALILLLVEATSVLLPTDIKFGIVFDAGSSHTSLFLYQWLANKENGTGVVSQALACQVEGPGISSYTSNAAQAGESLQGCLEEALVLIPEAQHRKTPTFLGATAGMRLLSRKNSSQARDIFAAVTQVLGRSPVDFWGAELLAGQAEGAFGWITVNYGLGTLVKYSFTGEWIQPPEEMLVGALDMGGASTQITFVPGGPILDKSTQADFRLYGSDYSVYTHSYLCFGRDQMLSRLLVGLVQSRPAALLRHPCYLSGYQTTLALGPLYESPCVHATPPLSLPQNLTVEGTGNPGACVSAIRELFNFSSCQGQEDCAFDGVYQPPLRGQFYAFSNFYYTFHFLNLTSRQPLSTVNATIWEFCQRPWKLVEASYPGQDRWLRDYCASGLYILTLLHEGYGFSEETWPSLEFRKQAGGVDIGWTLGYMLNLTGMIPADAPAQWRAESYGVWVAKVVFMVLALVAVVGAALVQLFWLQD

human NTPDase2 = target: T5, human NTPDase2 (Homo sapiens, UniProt Q9Y5L3); experiment: Hydrolysis by NTPDase2; format: biochemical; conditions: 100 μM substrate; relative to ATP hydrolysis (100%)
T5 sequence (Q9Y5L3 1-495): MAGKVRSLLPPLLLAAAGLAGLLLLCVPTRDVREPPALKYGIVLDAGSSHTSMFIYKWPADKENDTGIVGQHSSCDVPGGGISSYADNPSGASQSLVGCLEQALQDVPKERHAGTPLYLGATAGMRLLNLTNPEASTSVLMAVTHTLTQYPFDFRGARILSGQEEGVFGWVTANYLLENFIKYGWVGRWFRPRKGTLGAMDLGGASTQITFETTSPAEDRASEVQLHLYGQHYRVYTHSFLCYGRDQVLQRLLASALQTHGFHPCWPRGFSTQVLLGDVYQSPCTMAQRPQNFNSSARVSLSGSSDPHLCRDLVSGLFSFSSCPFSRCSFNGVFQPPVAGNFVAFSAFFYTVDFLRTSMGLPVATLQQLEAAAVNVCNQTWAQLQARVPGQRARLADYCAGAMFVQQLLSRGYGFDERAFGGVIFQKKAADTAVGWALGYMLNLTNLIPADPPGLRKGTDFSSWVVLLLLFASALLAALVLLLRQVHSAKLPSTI

turkey P2Y1 receptor = turkey P2Y1 receptor (Meleagris gallopavo, UniProt P49652); format: cell-based; conditions: 1321N1 cell transfectants
human P2Y2 receptor = human P2Y2 receptor (Homo sapiens, UniProt P41231); experiment: Increase in [Ca2+]i in 1321N1 astrocytoma cells expressing P2Y2 receptor; format: cell-based; conditions: read-out: EC50 of analogue-induced increase in [Ca2+]i, P2Y2; 1321N1 cell transfectants
human NTPDase1 = target: T6, human NTPDase1 (Homo sapiens, UniProt P49961); experiment: Hydrolysis by NTPDase1; format: biochemical
T6 sequence (P49961 1-510): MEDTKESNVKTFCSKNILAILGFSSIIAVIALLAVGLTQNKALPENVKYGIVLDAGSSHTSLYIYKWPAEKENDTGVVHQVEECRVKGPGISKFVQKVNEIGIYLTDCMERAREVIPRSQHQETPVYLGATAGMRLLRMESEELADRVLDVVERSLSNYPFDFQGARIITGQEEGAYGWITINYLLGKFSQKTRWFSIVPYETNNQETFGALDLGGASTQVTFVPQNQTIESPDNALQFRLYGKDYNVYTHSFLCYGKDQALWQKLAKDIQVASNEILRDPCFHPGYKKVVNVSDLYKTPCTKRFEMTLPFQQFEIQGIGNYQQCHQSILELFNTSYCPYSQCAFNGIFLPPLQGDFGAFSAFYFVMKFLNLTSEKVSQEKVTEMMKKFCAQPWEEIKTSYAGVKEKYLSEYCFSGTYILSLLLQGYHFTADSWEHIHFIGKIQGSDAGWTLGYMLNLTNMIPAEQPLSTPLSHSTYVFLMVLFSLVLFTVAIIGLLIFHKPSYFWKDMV

human P2Y4 receptor = human P2Y4 receptor (Homo sapiens, UniProt P51582); experiment: Increase in [Ca2+]i in 1321N1 astrocytoma cells expressing P2Y4 receptor; format: cell-based; conditions: read-out: EC50 of analogue-induced increase in [Ca2+]i, P2Y4; 1321N1 cell transfectants
rat P2Y6 receptor = rat P2Y6 receptor (Rattus norvegicus, UniProt Q63371); experiment: Increase in [Ca2+]i in 1321N1 astrocytoma cells expressing P2Y6 receptor; format: cell-based; conditions: read-out: EC50 of analogue-induced increase in [Ca2+]i, P2Y6; 1321N1 cell transfectants
[4] = 100 μM substrate, relative to pnp-TMP hydrolysis (100%)
[5] = 100 μM substrate, relative to ATP hydrolysis (100%)

Chain of turkey P2Y1 receptor (P49652 whole entry): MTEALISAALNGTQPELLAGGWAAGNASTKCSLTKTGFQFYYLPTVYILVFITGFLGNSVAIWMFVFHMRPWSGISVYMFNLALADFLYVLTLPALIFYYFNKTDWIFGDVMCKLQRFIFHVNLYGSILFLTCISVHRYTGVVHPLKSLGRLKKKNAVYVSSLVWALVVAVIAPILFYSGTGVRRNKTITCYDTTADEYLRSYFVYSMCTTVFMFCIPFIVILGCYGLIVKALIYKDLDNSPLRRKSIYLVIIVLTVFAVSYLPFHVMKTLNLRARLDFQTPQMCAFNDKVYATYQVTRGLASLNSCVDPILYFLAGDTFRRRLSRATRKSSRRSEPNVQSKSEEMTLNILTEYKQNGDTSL
Chain of human P2Y2 receptor (P41231 whole entry): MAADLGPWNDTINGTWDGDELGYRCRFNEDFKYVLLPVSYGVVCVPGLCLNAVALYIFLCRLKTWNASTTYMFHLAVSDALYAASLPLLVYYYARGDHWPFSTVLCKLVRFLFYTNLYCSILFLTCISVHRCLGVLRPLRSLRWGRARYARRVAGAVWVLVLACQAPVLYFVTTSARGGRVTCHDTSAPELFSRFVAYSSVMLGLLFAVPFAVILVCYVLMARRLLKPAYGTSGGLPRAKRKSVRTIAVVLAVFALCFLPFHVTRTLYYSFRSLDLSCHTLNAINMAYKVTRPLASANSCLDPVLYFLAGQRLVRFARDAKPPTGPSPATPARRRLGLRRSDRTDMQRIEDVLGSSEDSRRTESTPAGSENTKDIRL
Chain of human P2Y4 receptor (P51582 whole entry): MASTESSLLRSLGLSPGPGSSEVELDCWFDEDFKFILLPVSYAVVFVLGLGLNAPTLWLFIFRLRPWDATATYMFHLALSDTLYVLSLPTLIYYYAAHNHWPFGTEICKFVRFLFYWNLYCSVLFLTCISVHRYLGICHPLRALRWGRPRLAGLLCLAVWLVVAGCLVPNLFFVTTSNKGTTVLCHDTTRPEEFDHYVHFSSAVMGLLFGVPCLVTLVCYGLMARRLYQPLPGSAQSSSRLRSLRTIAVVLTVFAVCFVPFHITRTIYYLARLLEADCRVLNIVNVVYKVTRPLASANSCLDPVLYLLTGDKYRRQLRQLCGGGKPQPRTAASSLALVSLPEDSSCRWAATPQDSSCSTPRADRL
Chain of rat P2Y6 receptor (Q63371 whole entry): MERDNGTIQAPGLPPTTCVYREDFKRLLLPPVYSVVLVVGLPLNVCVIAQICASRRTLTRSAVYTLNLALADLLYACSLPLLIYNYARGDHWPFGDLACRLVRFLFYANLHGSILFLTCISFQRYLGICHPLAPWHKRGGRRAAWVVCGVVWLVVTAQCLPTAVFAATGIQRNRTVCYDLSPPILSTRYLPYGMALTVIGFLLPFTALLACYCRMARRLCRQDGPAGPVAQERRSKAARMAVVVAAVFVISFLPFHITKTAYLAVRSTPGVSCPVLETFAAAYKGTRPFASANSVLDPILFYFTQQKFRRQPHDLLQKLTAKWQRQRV

## BP(=O)(OC[C@H]1O[C@@H](n2cnc3c(N)ncnc32)[C@H](O)[C@@H]1O)OP(=O)(O)CP(=O)(O)O (stereo partly drawn) [compound 3, Adenosine-5′-O-(α-boranotriphosphate)-β,γ-CH2]
[1]; pH 1.4, 37 °C
  improvement of chemical stability as compared to 1: ca. 3 fold

## BP(=O)(OC[C@H]1O[C@@H](n2cnc3c(N)nc(Cl)nc32)[C@H](O)[C@@H]1O)OP(=O)(O)OP(=O)(O)O (stereo partly drawn) [2-Cl–ATP-α-B, reference compound]
P2Y2R
  activity at P2Y2R: very weak agonists

## CSc1nc(N)c2ncn([C@@H]3O[C@H](COP(=O)(O)OP(=O)(O)OP(=O)(O)O)[C@@H](O)[C@H]3O)c2n1 [2-MeS–ATP]
[2]
  fraction ionized: 91%

## CSc1nc(N)c2ncn([C@@H]3O[C@H](COP(=O)(O)OP(=O)(O)O)[C@@H](O)[C@H]3O)c2n1 [2-MeS-ADP]
[2]
  fraction ionized: 91%

## BP(=O)(OC[C@H]1O[C@@H](n2cnc3c(N)nc(SC)nc32)[C@H](O)[C@@H]1O)OP(=O)(O)CP(=O)(O)O (stereo partly drawn) [compound 4, 2-MeS–adenosine-5′-O-(α-boranotriphosphate)-β,γ-CH2]
[3]; human blood serum, half-life vs ATP
  enhancement of the metabolic stability of ATP: ≥ 20 fold

## Nc1ncnc2c1ncn2[C@@H]1O[C@H](COP(=O)(O)OP(=O)(O)O)[C@@H](O)[C@H]1O [ADP]
P2Y1R; read-out: EC50 at P2Y1R, endogenous agonist ref 1
  EC50: ~0.1 µM

## Cc1cn([C@H]2C[C@H](O)[C@@H](COP(=O)(O)Oc3ccc([N+](=O)[O-])cc3)O2)c(=O)[nH]c1=O [pnp-TMP, p-nitrophenylthymidine-5′-monophosphate, reference compound]
Human NPP1; 100 μM pnp-TMP
  100% activity of NPP1 with pnp-TMP as substrate: 24 ± 2 nmol p-nitrophenol/min·mg protein
Human NPP1; [4]
  Relative activity of NPP1: 100%
Human NPP3; 100 μM pnp-TMP
  100% activity of NPP3 with pnp-TMP as substrate: 53 ± 4 nmol p-nitrophenol/min·mg protein
Human NPP3; [4]
  Relative activity of NPP3: 100%

## [BH3-][P+](O)(OC[C@H]1O[C@@H](n2cnc3c(N)nc(SC)nc32)[C@H](O)[C@@H]1O)OP(=O)(O)CP(=O)(O)O (single isomer, unassigned) [4B, 2-MeS–adenosine-5′-O-(α-boranotriphosphate)-β,γ-CH2]
Human NTPDase3; [5]
  Relative activity of NTPDase3: 2.0 ± 1.0%
Human NTPDase8; [5]
  Relative activity of NTPDase8: 3.0 ± 07%
Human NTPDase2
  Relative activity of NTPDase2: 1.0 ± 0.3%
Turkey P2Y1 receptor
  agonist activity at P2Y1R: potent P2Y1R agonists; also recorded: active isomer
Turkey P2Y1 receptor; read-out: EC50 of analogue-induced increase in [Ca2+]i, P2Y1
  EC50: 17.2 ± 5.3 µM
Human P2Y2 receptor
  EC50: > 100 µM
Human NTPDase1; [5]
  Relative activity of NTPDase1: <1%
Human P2Y4 receptor
  EC50: > 100 µM
[3]; Method B, human blood serum and RPMI-1640, 37 °C
  t1/2 in human blood serum: 71.9 h
[1]; KCl/HCl buffer pH 1.4, 37 °C, 31P NMR (2) or HPLC-MS (3B, 4B)
  t1/2 of acidic hydrolysis: 14.5 h
Rat P2Y6 receptor
  EC50: > 100 µM

## Nc1ncnc2c1ncn2[C@@H]1O[C@H](COP(=O)(O)OP(=O)(O)OP(=O)(O)O)[C@@H](O)[C@H]1O [ATP, reference compound]
Human NTPDase3; 100 μM ATP
  ATPase activity (100%) of NTPDase3: 493 ± 21 nmol Pi/min·mg protein
Human NTPDase8; 100 μM ATP
  ATPase activity (100%) of NTPDase8: 173 ± 18 nmol Pi/min·mg protein
Human NTPDase1; 100 μM ATP
  ATPase activity (100%) of NTPDase1: 497 ± 38 nmol Pi/min·mg protein

## 2-MeS–ATP-α-B [1A]
P2Y1R
  potency of 1A isomer relative to 1B isomer at P2Y1R: 20 fold
